Series [1] relates to Leishmania donovani. The series can be described thus: Antileishmanial activity against Leishmania donovani promastigotes assessed as inhibition of parasite multiplication at 10 ug/ml. Details: scale not given: the % may be the effect or the level left. It is filed as functional.
The test system of series [2] is Leishmania donovani. The series can be described thus: Antileishmanial activity against Leishmania donovani amastigote infected in mouse J774A1 cells expressing green fluorescence protein by flow cytometry. The note with it: J774.A1. The format is functional, organism-based.
Series [3] relates to Leishmania donovani. The series can be described thus: Antileishmanial activity against Leishmania donovani promastigotes expressing green fluorescence protein by flow cytometry. The format is functional. (In general: A flow cytometer gives signals particle by particle.)
In series [4] the test system is Leishmania donovani. The series can be described thus: Antileishmanial activity against Leishmania donovani promastigotes expressing green fluorescence protein assessed as decrease in mean fluorescence intensity. The format is functional, organism-based.
The test system of series [5] is Leishmania donovani. The series can be described thus: Antileishmanial activity against Leishmania donovani amastigote infected in mouse J774A1 cells expressing green fluorescence protein assessed as decrease in mean fluorescence intensity up to 25 ug/ml. It is filed as functional, organism-based. The note with it: J774.A1.
In series [6] the test system is Leishmania donovani. Kind of series: Antileishmanial activity against Leishmania donovani amastigote infected in mouse J774A1 cells expressing green fluorescence protein assessed as decrease in mean fluorescence intensity at 30 to 100 ug/ml. It is filed as functional, organism-based. The note with it: J774.A1.
A further series deals with J774.A1. The series can be described thus: Cytotoxicity against mouse J774A1 cells at 200 uM after 48 hrs by MTT assay. It is filed as cell-based. The note with it: j774.a1, 48 h. On the technique in general: Tetrazolium assays rely on reduction of a dye to a coloured formazan, in cell work by metabolically active cells.
In series [7] the test system is Leishmania donovani. The series can be described thus: Antileishmanial activity against Leishmania donovani infected in hamster assessed inhibition of parasite growth at 200 mg/kg, po after 5 days. The format is functional. Details: scale not given: the % may be the effect or the level left.
The test system of series [8] is Leishmania donovani. The series can be described thus: Antileishmanial activity against Leishmania donovani infected in hamster assessed inhibition of parasite growth at 100 mg/kg, po after 5 days. It is filed as functional. More on the design: scale not given: the % may be the effect or the level left.
Series [9] deals with Leishmania donovani. Kind of series: Antileishmanial activity against Leishmania donovani infected in hamster assessed inhibition of parasite growth at 50 mg/kg, po after 5 days. More on the design: dose 50 mg/kg. It is filed as functional, organism-based.
For series [10], the system named is Leishmania donovani. Kind of series: Antileishmanial activity against Leishmania donovani infected in hamster assessed inhibition of parasite growth at 40 mg/kg, po after 5 days. The format is functional. Details: scale not given: the % may be the effect or the level left.

≈ marks a conversion by molar mass, not a printed value. Calls of active or inactive are those of the source. No cut-off for these calls is given here.

The IC50 is the concentration that inhibits the measured activity by half. Take `CCCCCCCCCCCCCCCCOP(=O)([O-])OCC[N+](C)(C)C` [MILTEFOSINE]: the Activity in the series on Leishmania donovani [1] was determined as 50%. Also, inhibition in the series on Leishmania donovani [2] was half-maximal at 5 µg/mL (≈ 12.3 µM) (IC50).

In general, IC90 refers to the concentration at which the effect reaches the 90% level. As for `Cl.OC1CCN2Cc3ccccc3N=C12` (stereo not given) [PEGANINE HYDROCHLORIDE], the Activity with Leishmania donovani [3] was 50%; in the series on Leishmania donovani [4], “Dose-dependent effect”; with J774.A1 it was “Non-toxic”; with Leishmania donovani [7], 87.5%; in the series with Leishmania donovani [8], 79.6%; in the series on Leishmania donovani [10], 95.5%. Also, the IC50 in the series with Leishmania donovani [4] was 38 µg/mL; with Leishmania donovani [2], 41 µg/mL. Also, the IC90 in the series with Leishmania donovani [4] was determined as 75 µg/mL; with Leishmania donovani [2], 85 µg/mL. Further, the result in the series on Leishmania donovani [5] and with Leishmania donovani [6] was Active. Further, in the series with Leishmania donovani [9], the outcome was inactive.
